Test results: publication PMC11679793, “Structure-Activity Relationship Study of Majusculamide D: Overcoming Metabolic Instability and Severe Toxicity with a Fluoro Analogue” (Marine Drugs, 2024)

Experiments:
[1] = test system: PANC-1 and MIA PaCa-2 pancreatic cancer cells; test: Transwell invasion assay; type: cell-based; conditions: 24 h, concentration-dependent, vs control
Excerpt: (§1) Figure S225. Compound 1a inhibited the migration, invasion and proliferation of pancreatic cancer cells. (A) The results of wound healing assays to investigate the effects of 1a on the migration ability against PANC-1 and MIA PaCa-2 pancreatic cancer cells. (B) The results of transwell assays to investigate the effects of 1a on the invasion ability. (C) Effects of 1a on the clonogenic ability. (D) EdU assays of 1a. (E) Western blot assays of 1a on biomarkers. Data are presented as mean ± SD, n […]
(§2) Approximately 50% of pancreatic cancer patients show distant metastases at the time […]
(§3) disease. To evaluate the inhibitory effects of majusculamide D (1a) on the migratory capabilities of pancreatic cancer cells (PANC-1 and MIA PaCa-2), wound healing assays […]
(§4) were performed (Figure S1A). […]
(§5) concentration-dependent manner. […]
(§6) inhibited the migration of these pancreatic cancer cells. Further validation with transwell […]
(§7) concentration-dependent manner compared to the control group (Figure S1B). Since cell migration and invasion are correlated with cancer metastasis, compound 1a may delay the progression of tumors’ local spread and distant metastasis by inhibiting the migration and invasion ability of pancreatic cancer cells. […]
(§8) Images were taken at 0 hour and 24 hours after treatment to record and analyzed by measuring the area of the wound at each time point using ImageJ. […]

[2] = test system: PANC-1 and MIA PaCa-2 pancreatic cancer cells; test: Wound healing assay; type: cell-based; conditions: PANC-1 and MIA PaCa-2, 24 h, concentration-dependent, vs control
Excerpt: as §1, §2, §3, §4, §5, §6, §7, §8

[3] = Stability in mouse plasma assay; type: in vitro ADME; conditions: 1 μM, 37 °C, 2 h incubation
Procedure: Thaw plasma at room temperature and vortex for 3–5 s. Centrifuge at 3000 rpm at 10 °C for 10 min, and carefully transfer the supernatant to a new Eppendorf tube. Preincubate the plasma at 37 °C for 10 min. Prepare a series of test substances by adding 3 μL of the compound (100 μM) to 297 μL of plasma to achieve a final concentration of 1 μM, ensuring that the DMSO concentration in plasma is 1%. Propantheline bromide is used as a positive control. Incubate the mixture at 37 °C, and at specified time points (0, 1, 2, 4, and 24 h), take 50 μL of the plasma sample. To terminate the reaction, add 250 μL of acetonitrile (containing an internal standard), vortex thoroughly, and centrifuge at 16,000 rcf (4 °C) for 10 min. Collect 130 μL of the supernatant and dilute with 70 μL of pure water for LC-MS/MS analysis. The concentration of the test substances in plasma samples was determined using LC-MS/MS. The stability of the test substance in plasma was evaluated by measuring the remaining percentage of the compound in the plasma over time.

In the case of `CCCCC(C)CC(C)C(=O)N(C)C(Cc1ccc(OC)cc1)C(=O)NC(C(=O)N(C)C(C(=O)N1CC(O)CC1C(=O)N1C(=O)C=CC1C)C(C)C)C(C)OC(C)=O` (stereo not drawn) [Compound 1a, Majusculamide D], the “cell invasion (transwell)” value [1] is reported as “significantly decreased cell invasion”, the “scratch wound healing rate (migration)” value [2] is reported as “significantly reduced the scratch wound healing rate” and the “remaining percentage in mouse plasma after 2 h” value [3] is reported as 54.7%.
